Assays:
[1] = test system: defense-related genes in tomato plants; test: Induction of defense gene expression of tomato plants (RT-qPCR); type: in vivo, tomato cv. Rio Grande; details: for BCB gene expression, fold induction / ERT3 gene expression, fold induction / GluA gene expression, fold induction / Harp gene expression, fold induction / LOX gene expression, fold induction / Osm2 gene expression, fold induction / PPO gene expression, fold induction / PR1 gene expression, fold induction / PinII gene expression, fold induction / Sub1 gene expression, fold induction / Tas14 gene expression, fold induction: tomato leaves sprayed, 24 h, peptides and flg15 125 μM, JA 2.5 mM, ASM 300 mg/L, ΔΔCt relative to actin, above 2 = overexpression; for Defense gene expression in tomato plants (genes overexpressed): treatment at 125 μM, significant overexpression (REST2009)
Protocol: Seeds of tomato cv. Rio Grande plants were sown in hydroponic seed plugs (rockwool), germinated and grown under controlled greenhouse conditions (25 ± 2°C, 16 h light / 15 ± 2°C, 8 h dark, and 60% RH). Two-week old seedlings (two cotyledons) were transplanted into rockwool plugs (7.5×7.5×6.5 cm, Grodan Iberica). The experimental design consisted of three replicates of three plants per treatment. After two weeks, tomato leaves were sprayed with aqueous solutions of BP100, 9 selected derivatives and flg15 at 125 μM, jasmonic acid at 2.5 mM (Sigma-Aldrich, Sant Louis, Missouri, UE), and acybenzolar-S-methyl at 300 mg/L (Syngenta, Basel, Switzerland), until the run-off point. Water-sprayed plants were used as not treated controls. Twenty-four hours after product application leaf samples were collected and processed to extract RNA for RT-qPCR assays. Plant material was ground to a fine powder in liquid nitrogen with the Tissuelyzer II system (Qiagen). Total RNA was extracted from leaves using PureLink Plant RNA Reagent (Invitrogen, Life Technologies) according to the manufacturer’s manual. The RNA was solubilized in RNAse free water and was routinely subjected to DNAse treatment (Ambion® Turbo DNA-free™, Life Technologies) to remove any contaminant DNA. In each step, the RNA was quantified using a Nanodrop N-2000 spectrophotometer, and its integrity verified by denaturing agarose gel electrophoresis. First-strand of complementary DNA (cDNA) was generated from leave RNA using reverse transcriptase (High Capacity cDNA Reverse Transcription Kit, Invitrogen) according to the manufacturer’s manual.
To test gene defense induction in the treated tomato plants, a qPCR assay was performed. Quantitative PCR was carried out in a fluorometric thermal cycler (qPCR Quant Studio 5, Applied Biosystems) by using a Mix SYBR®Green PCR Master Mix (Applied Biosystems). The total reaction volume of this PCR reaction was 20 μL and the reaction mixture was 1 μL of each primer set at the adequate concentration, 10 μL of MixSyber Green, 6 μL of distilled water and 2 μL of cDNA. Melting curve analysis was performed after amplification to verify amplification specificity. A constitutive gene (actin gene) was used as reference control, and the following genes implicated in plant defense response were analyzed: Pathogenesis-related protein-1 (PR1), Harpin (Harp), Polyphenol oxidase (PPO), Subtilisin-like protease (Sub1), Blue copper binding-protein (BCB), Osmotin (Osm2), Acidic β-1,3 endoglucanase (GluA), Lypoxigenase (LOX), Protein inhibitor II (PinII), Dehydrin (Tas14) and Ethylene response transcription factor (ERT3). […] For each gene system, the concentration of the primer pair was optimized. The primer concentration was 100 nM for all the genes except for the GluA, Harp, PR1 and actin genes which optimized concentration was 300 nM. A calibration curve was prepared by cloning the corresponding DNA in the pSpark cloning vector (Canvax, Córdoba, Spain) according to the manufacturer instructions, which was then used to transform E. coli DH5α by standard procedures. The number of plasmid copies were quantified after purification from E. coli (QIAGEN Iberia, S. L., Madrid, Spain), and appropriate dilutions were prepared to obtain the standard curve. […] Relative quantification of gene expression was done using the ΔΔCt method. Each biological repetition treatment was analyzed in duplicate. The mean of the Ct values obtained were used to estimate the fold change value of the endogenous reference gene (actin) and the target plant defense genes.

[2] = test system: Penicillium expansum EPS26; test: MIC, antifungal growth inhibition in microtiter plates (PDB); type: cell-based; details: Pe, 22°C, seven days, OD 600 nm, lowest concentration with no growth, given as interval of tested concentrations, three replicates, experiment repeated twice
How it was run: (§1)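 Conidial suspensions (10^3 conidia/mL P. expansum, 10^4 F. oxysporum) incubated with peptides in PDB with 0.003% chloramphenicol at 22 °C for seven days, OD600 read every 2 h. MIC is the lowest concentration with no growth at the end; triplicates, experiment repeated twice.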

[3] = test system: Fusarium oxysporum f. sp. lycopersici FOL 3 race 2; test: as above; type: cell-based; details: Fo, 22°C, seven days, OD 600 nm, lowest concentration with no growth, given as interval of tested concentrations, three replicates, experiment repeated twice
How it was run: as §1

| Structure (SMILES) | BCB gene expression, fold induction [1] | ERT3 gene expression, fold induction [1] | GluA gene expression, fold induction [1] | Harp gene expression, fold induction [1] | LOX gene expression, fold induction [1] | Osm2 gene expression, fold induction [1] | PPO gene expression, fold induction [1] | PR1 gene expression, fold induction [1] | PinII gene expression, fold induction [1] | Sub1 gene expression, fold induction [1] | Tas14 gene expression, fold induction [1] | Defense gene expression in tomato plants (genes overexpressed) [1] | MIC [2] [µM] | MIC [3] [µM] |
| --- | --- | --- | --- | --- | --- | --- | --- | --- | --- | --- | --- | --- | --- | --- |
| CCCC(=O)NCCCC[C@H](NC(=O)[C@H](CCCCN)NC(=O)[C@H](Cc1ccccc1)NC(=O)[C@H](CC(C)C)NC(=O)[C@H](CCCCN)NC(=O)[C@H](CCCCN)NC(C)=O)C(=O)N[C@H](C(=O)N[C@@H](CC(C)C)C(=O)N[C@@H](CCCCN)C(=O)N[C@@H](Cc1ccc(O)cc1)C(=O)N[C@@H](CC(C)C)C(N)=O)[C@@H](C)CC [BP385, Ac-KKLFKK(COC3H7)ILKYL-NH2] | 4.2 | 0.2 | 0.7 | 2.3 | 1.1 | 1.2 | 1.7 | 3.2 | 7.1 | 1.0 | 0.7 | one gene (Osm2, Tas14 or BCB) | 6.2 to 12.5 | 1.6 to 3.1 |
| CCCCCCCCCCCC(=O)NCCCC[C@H](NC(=O)[C@H](CC(C)C)NC(=O)[C@@H](NC(=O)[C@H](CCCCN)NC(=O)[C@H](CCCCN)NC(=O)[C@H](Cc1ccccc1)NC(=O)[C@H](CC(C)C)NC(=O)[C@H](CCCCN)NC(=O)[C@H](CCCCN)NC(C)=O)[C@@H](C)CC)C(=O)N[C@@H](Cc1ccc(O)cc1)C(=O)N[C@@H](CC(C)C)C(N)=O [BP400, Ac-KKLFKKILK(COC11H23)YL-NH2] | 0.6 | 0.2 | 0.1 | 1.4 | 1.1 | 0.9 | 1.4 | 0.1 | 1.1 | 0.5 | 8.3 | one gene (Osm2, Tas14 or BCB) | >25 | 6.2 to 12.5 |
| CCCCCC(=O)NCCCC[C@H](NC(=O)[C@H](CCCCN)NC(=O)[C@H](CCCCN)NC(=O)[C@H](Cc1ccccc1)NC(=O)[C@H](CC(C)C)NC(=O)[C@H](CCCCN)NC(=O)[C@H](CCCCN)NC(C)=O)C(=O)N[C@@H](CC(C)C)C(=O)N[C@@H](CCCCN)C(=O)N[C@@H](Cc1ccc(O)cc1)C(=O)N[C@@H](CC(C)C)C(N)=O [BP374, Ac-KKLFKKK(COC5H11)LKYL-NH2] | 1.0 | 2.0 | 0.5 | 0.9 | 1.9 | 1.6 | 0.7 | 0.5 | 1.7 | 0.8 | 1.2 | – | >25 | 0.8 to 1.6 |
